Inconclusive results and toxic doses are left out. Cut-off read from the data, not from the text of the source: active = T/C of 150% or more; inactive = T/C below 125%.
System: L1210 leukemia ip in BDF1 mice, survival T/C
Experiment: NCI In Vivo Anticancer Drug Screen. Data for tumor model L1210 Leukemia (intraperitoneal) in B6D2F1 (BDF1) mice
Conditions: endpoint: mean survival time, higher = longer survival
Method in brief: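 Each compound was tested against a transplantable tumor grown in mice. The endpoint was survival, with treated animals benchmarked against vehicle controls as a simple ratio.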

[1] = dose: 100.0 mg/kg/injection, schedule: Q01DX009 (ip), vehicle: Klucel (hydroxypropylcellulose) (HPC)
[2] = dose: 200.0 mg/kg/injection, schedule: Q01DX009 (ip), vehicle: Klucel (hydroxypropylcellulose) (HPC)
[3] = dose: 400.0 mg/kg/injection, schedule: Q01DX009 (ip), vehicle: Klucel (hydroxypropylcellulose) (HPC)
[4] = dose: 100.0 mg/kg/injection, schedule: Q01DX001 (ip), vehicle: saline
[5] = dose: 200.0 mg/kg/injection, schedule: Q01DX001 (ip), vehicle: saline
[6] = dose: 100.0 mg/kg/injection, schedule: Q04DX002 (ip), vehicle: Klucel (hydroxypropylcellulose) (HPC)
[7] = dose: 200.0 mg/kg/injection, schedule: Q04DX002 (ip), vehicle: Klucel (hydroxypropylcellulose) (HPC)

Measured: T/C

CC(=O)C1=CC[C@H]2[C@@H]3CCC4=CC(=O)CC[C@]4(C)[C@H]3C(=O)C[C@]12C
inactive: dose: 50.0 mg/kg/injection, schedule: Q01DX Z (sc), vehicle: steriod suspending solution 102 % of control | dose: 250.0 mg/kg/injection, schedule: Q01DX Z (sc), vehicle: steriod suspending solution 101 % of control | dose: 500.0 mg/kg/injection, schedule: Q01DX Z (sc), vehicle: steriod suspending solution 102 % of control

CC(C)N(C(=O)Nc1cccc(F)c1)c1ccccc1
inactive: dose: 100.0 mg/kg/injection, schedule: Q01DX009 (ip), vehicle: gum acacia 96 % of control | dose: 200.0 mg/kg/injection, schedule: Q01DX009 (ip), vehicle: gum acacia 96 % of control | dose: 400.0 mg/kg/injection, schedule: Q01DX009 (ip), vehicle: gum acacia 90 % of control

CCCCNc1cc(N)[nH]c(=O)n1
inactive: dose: 75.0 mg/kg/injection, schedule: Q01DX001 (ip), vehicle: saline with Tween-80 93 % of control | dose: 150.0 mg/kg/injection, schedule: Q01DX001 (ip), vehicle: saline with Tween-80 90 % of control | dose: 300.0 mg/kg/injection, schedule: Q01DX001 (ip), vehicle: saline with Tween-80 90 % of control

Cc1ccc2nc(-c3cc(Br)ccc3O)c(-c3cc(Br)ccc3O)nc2c1
inactive: [1] 97 % of control | dose: 100.0 mg/kg/injection, schedule: Q04DX003 (ip), vehicle: Klucel (hydroxypropylcellulose) (HPC) 96 % of control | [2] 100 % of control | dose: 200.0 mg/kg/injection, schedule: Q04DX003 (ip), vehicle: Klucel (hydroxypropylcellulose) (HPC) 101 % of control | [3] 89 % of control | dose: 400.0 mg/kg/injection, schedule: Q04DX003 (ip), vehicle: Klucel (hydroxypropylcellulose) (HPC) 101 % of control

CC1CC(=O)c2c(cc3c(-c4c(O)cc(O)c5c(O)c6c(cc45)OC(C)CC6=O)c(O)cc(O)c3c2O)O1 (configuration not stated)
inactive: dose: 100.0 mg/kg/injection, schedule: Q04DX003 (ip), vehicle: carboxymethylcellulose (CMC) 103 % of control | dose: 200.0 mg/kg/injection, schedule: Q04DX003 (ip), vehicle: carboxymethylcellulose (CMC) 92 % of control

O=C(Nc1ccc(C(=O)O)cc1)Nc1cccc(C(F)(F)F)c1
inactive: dose: 100.0 mg/kg/injection, schedule: Q01DX009 (ip), vehicle: saline with Tween-80 93 % of control | dose: 200.0 mg/kg/injection, schedule: Q01DX009 (ip), vehicle: saline with Tween-80 87 % of control

CN(C)/C=N/c1nccs1
inactive: [4] 104 % of control | [5] 107 % of control | dose: 400.0 mg/kg/injection, schedule: Q01DX001 (ip), vehicle: saline 107 % of control

NNC(=O)CNc1cccc(Cl)c1
inactive: [6] 101 % of control | [7] 108 % of control

COC(=O)c1cc(OC)cc(OC)c1C(=O)c1c(OC)c(Cl)c(C)c(Cl)c1OC
inactive: dose: 50.0 mg/kg/injection, schedule: Q04DX002 (ip), vehicle: saline with Tween-80 110 % of control | dose: 100.0 mg/kg/injection, schedule: Q04DX002 (ip), vehicle: saline with Tween-80 95 % of control | dose: 200.0 mg/kg/injection, schedule: Q04DX002 (ip), vehicle: saline with Tween-80 100 % of control

O=C(O)/C=C/C(=O)Nc1ccccc1NC(=O)/C=C/C(=O)O
inactive: [1] 101 % of control | [2] 92 % of control | [3] 97 % of control

CN(C)c1ccc(/C(=N\O)C(=O)O)cc1
inactive: dose: 50.0 mg/kg/injection, schedule: Q01DX001 (ip), vehicle: saline 107 % of control | [4] 105 % of control | [5] 100 % of control

Cc1cc(C)c(NC(=O)C2CCCCC2C(=O)O)c(C)c1 (configuration not stated)
inactive: [6] 99 % of control | [7] 92 % of control | dose: 400.0 mg/kg/injection, schedule: Q04DX002 (ip), vehicle: Klucel (hydroxypropylcellulose) (HPC) 99 % of control

O=S(=O)(CCO)CCS(=O)(=O)CCO
inactive: dose: 75.0 mg/kg/injection, schedule: Q01DX009 (ip), vehicle: carboxymethylcellulose (CMC) 92 % of control | dose: 150.0 mg/kg/injection, schedule: Q01DX009 (ip), vehicle: carboxymethylcellulose (CMC) 102 % of control | dose: 300.0 mg/kg/injection, schedule: Q01DX009 (ip), vehicle: carboxymethylcellulose (CMC) 92 % of control

COc1cc(NS(=O)(=O)c2ccc(C(C)=O)cc2)nc(OC)n1
inactive: [1] 94 % of control | [2] 102 % of control | [3] 98 % of control
